The text below walks through data of ChEMBL document CHEMBL1144980, “Lupane triterpenes and derivatives with antiviral activity” (Bioorg Med Chem Lett, 2003).

In assay [1] the test system is Human alphaherpesvirus 1. The experiment in a line: Antiviral activity against HSV-1 determined by inhibition of viral cytopathic effect (CPE) in rhabdomyosarcoma (RD) cell line. Format: functional, organism-based, herpes simplex virus. The conditions noted are these: Human alphaherpesvirus 1, RD.
The subject of assay [2] is Influenza A virus. The experiment in a line: Antiviral activity against influenza A virus determined in chicken embryo cells (CEC) by plaque reduction assay method. Format: functional, organism-based.
For assay [3], the system named is Human alphaherpesvirus 1. The experiment in a line: Ratio of maximum nontoxic concentration (MNTC) against HSV-1 to that of effective concentration (EC50). Format: functional, herpes simplex virus.
The subject of assay [4] is Influenza A virus. The experiment in a line: Ratio of maximum nontoxic concentration (MNTC) against Influenza virus A to that of effective concentration (EC50). Format: functional.

A value given as a limit tells only on which side of the number the result lay.

As for `C=C(C)[C@@H]1CCC2(NC(=O)N[C@H](CCSC)C(=O)OC)CC[C@@]3(C)C(CC[C@@H]4[C@@]5(C)CC/C(=N\O)C(C)(C)C5CC[C@]43C)C12` (some centres not stated), the EC50 in the assay with Human alphaherpesvirus 1 [1] amounted to 0.6 µM; in the assay on Influenza A virus [2], 2.3 µM. Further, the Ratio in the assay with Human alphaherpesvirus 1 [3] is listed as 67.6; in the assay on Influenza A virus [4], 35.2.
`C=C(C)[C@@H]1CC[C@]2(C(=O)N[C@H](C(=O)OC)C(C)C)CC[C@@]3(C)C(CC[C@@H]4[C@@]5(C)CCC(=O)C(C)(C)C5CC[C@]43C)C12` (some centres not stated): the EC50 in the assay with Human alphaherpesvirus 1 [1] stood at 142 µM; in the assay on Influenza A virus [2], 13.3 µM. For the same compound, the Ratio in the assay with Human alphaherpesvirus 1 [3] came out at 2.5; with Influenza A virus [4], 3.4.
For `C=C(C)[C@@H]1CCC2(NC(=O)N[C@H](CC(C)C)C(=O)OC)CC[C@@]3(C)C(CC[C@@H]4[C@@]5(C)CCC(=O)C(C)(C)C5CC[C@]43C)C12` (some centres not stated) the same measures were 14.6 µM, 5 µM, 11.5 and over 67.
In turn, `C=C(C)[C@@H]1CC[C@]2(C(=O)NN)CC[C@@]3(C)C(CC[C@@H]4[C@@]5(C)CCC(=O)C(C)(C)C5CC[C@]43C)C12` (some centres not stated) had an EC50 with Human alphaherpesvirus 1 [1] of 10 µM. Further, the Ratio in the assay with Human alphaherpesvirus 1 [3] was determined as 21.3.
On to `C=C(C)[C@@H]1CC[C@]2(C(=O)NCCCCCCCCCCCCCCCCCC)CC[C@@]3(C)C(CC[C@@H]4[C@@]5(C)CCC(=O)C(C)(C)C5CC[C@]43C)C12` (some centres not stated), for which the EC50 worked out at 1.4 µM in the assay on Human alphaherpesvirus 1 [1] and 55.5 µM in the assay with Influenza A virus [2]. Besides, the values for the Ratio in the assay on Human alphaherpesvirus 1 [3] and in the assay with Influenza A virus [4] were 177 and 4.6, respectively.
On to `C=C(C)[C@@H]1CCC2(NC(=O)N[C@H](CCSC)C(=O)OC)CC[C@@]3(C)C(CC[C@@H]4[C@@]5(C)CCC(=O)C(C)(C)C5CC[C@]43C)C12` (some centres not stated), for which the values for the EC50 in the assay with Human alphaherpesvirus 1 [1] and in the assay with Influenza A virus [2] were 2.2 µM and 27.1 µM, respectively. Further, the Ratio worked out at 298.5 in the assay on Human alphaherpesvirus 1 [3] and 3 in the assay with Influenza A virus [4].
Consider `C=C(C)[C@@H]1CC[C@]2(C(=O)O)CC[C@]3(C)[C@H](CC[C@@H]4[C@@]5(C)CC[C@H](O)C(C)(C)[C@@H]5CC[C@]43C)[C@@H]12` [BETULINIC ACID], for which the EC50 in the assay on Human alphaherpesvirus 1 [1] was 8.2 µM; with Influenza A virus [2], over 219 µM. In addition, the Ratio in the assay with Human alphaherpesvirus 1 [3] is given as 53.3; in the assay with Influenza A virus [4], under 1.
For `C=C(C)[C@@H]1CC[C@]2(C(=O)NCCO)CC[C@@]3(C)C(CC[C@@H]4[C@@]5(C)CCC(=O)C(C)(C)C5CC[C@]43C)C12` (some centres not stated) the same measures were over 377 µM, over 755 µM, under 1 and under 1.
On to `C=C(C)[C@@H]1CC[C@]2(C(=O)NN)CC[C@@]3(C)C(CC[C@@H]4[C@@]5(C)CC/C(=N\O)C(C)(C)C5CC[C@]43C)C12` (some centres not stated), for which the EC50 in the assay on Human alphaherpesvirus 1 [1] was over 51.6 µM; in the assay on Influenza A virus [2] it was 2 µM. Besides, the Ratio with Human alphaherpesvirus 1 [3] was under 1; in the assay on Influenza A virus [4], 25.2.
For the compound `C=C(C)[C@@H]1CC[C@]2(C(=O)N[C@@H](CC(C)C)C(=O)OC)CC[C@@]3(C)C(CC[C@@H]4[C@@]5(C)CCC(=O)C(C)(C)C5CC[C@]43C)C12` (some centres not stated), the EC50 is 1370 µM with Human alphaherpesvirus 1 [1] and 72.3 µM with Influenza A virus [2]. Besides, the Ratio in the assay on Human alphaherpesvirus 1 [3] is under 1; in the assay on Influenza A virus [4], 1.2.
Consider `C=C(C)[C@@H]1CC[C@]2(N=C=O)CC[C@@]3(C)C(CC[C@@H]4[C@@]5(C)CCC(=O)C(C)(C)C5CC[C@]43C)C12` (some centres not stated), for which the EC50 in the assay on Human alphaherpesvirus 1 [1] and in the assay with Influenza A virus [2] was over 221 µM each time. Besides, the Ratio in the assay with Human alphaherpesvirus 1 [3] and in the assay on Influenza A virus [4] was under 1 each time.
In the case of `C=C(C)[C@@H]1CCC2(NC(=O)N[C@@H](C(=O)OC)C(C)C)CC[C@@]3(C)C(CC[C@@H]4[C@@]5(C)CCC(=O)C(C)(C)C5CC[C@]43C)C12` (some centres not stated), the EC50 in the assay on Human alphaherpesvirus 1 [1] was 0.2 µM; with Influenza A virus [2], over 85.7 µM. Further, the Ratio in the assay on Human alphaherpesvirus 1 [3] is on record as 454; in the assay on Influenza A virus [4], under 1.
Consider `C=C(C)[C@@H]1CC[C@]2(C(=O)O)CC[C@]3(C)[C@H](CC[C@@H]4[C@@]5(C)CCC(=O)C(C)(C)[C@@H]5CC[C@]43C)[C@@H]12` [BETUNOLIC ACID], for which the EC50 in the assay with Human alphaherpesvirus 1 [1] amounted to 2.5 µM; in the assay on Influenza A virus [2], 5.7 µM. Moreover, the Ratio in the assay with Human alphaherpesvirus 1 [3] is on record as 43.9; with Influenza A virus [4], 9.6.
The matching figures for `C=C(C)[C@@H]1CC[C@]2(C(N)=O)CC[C@@]3(C)C(CC[C@@H]4[C@@]5(C)CCC(=O)C(C)(C)C5CC[C@]43C)C12` (some centres not stated): 220 µM, 0.7 µM, under 1 and 1333.3.
For `C=C(C)[C@@H]1CC[C@]2(C(=O)N[C@@H](CCSC)C(=O)OC)CC[C@@]3(C)C(CC[C@@H]4[C@@]5(C)CCC(=O)C(C)(C)C5CC[C@]43C)C12` (some centres not stated), the EC50 with Human alphaherpesvirus 1 [1] was over 666 µM; in the assay with Influenza A virus [2], 14.2 µM. Also, the Ratio in the assay on Human alphaherpesvirus 1 [3] is reported as under 1; with Influenza A virus [4], 11.9.
Take `C=C(C)[C@@H]1CC[C@]2(C(=O)N[C@@H](C)C(=O)OC)CC[C@@]3(C)C(CC[C@@H]4[C@@]5(C)CCC(=O)C(C)(C)C5CC[C@]43C)C12` (some centres not stated): the values for the EC50 with Human alphaherpesvirus 1 [1] and in the assay with Influenza A virus [2] were 663 µM and over 234 µM, respectively. Besides, the Ratio with Human alphaherpesvirus 1 [3] was 1.4; in the assay with Influenza A virus [4] it was under 1.
